What was measured:
[1] = target: T1, Neutrophil elastase (Homo sapiens, UniProt P08246); assay: Compound was tested for inhibition of human leukocyte Elastase at 16 uM concentration from human polymorphonuclear leukocytes
T1 sequence (P08246 whole entry): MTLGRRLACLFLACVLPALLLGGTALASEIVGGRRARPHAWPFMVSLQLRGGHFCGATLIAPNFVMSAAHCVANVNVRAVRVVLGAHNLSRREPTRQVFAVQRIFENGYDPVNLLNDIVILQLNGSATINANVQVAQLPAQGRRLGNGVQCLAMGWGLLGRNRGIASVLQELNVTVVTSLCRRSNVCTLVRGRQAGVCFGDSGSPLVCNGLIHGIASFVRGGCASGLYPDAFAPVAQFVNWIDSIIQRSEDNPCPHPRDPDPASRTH

[2] = target: T1, Neutrophil elastase; assay: Compound was tested for inhibition of human leukocyte Elastase at 51 uM concentration from human polymorphonuclear leukocytes
[3] = target: T1, Neutrophil elastase; assay: Compound was tested for inhibition of human leukocyte Elastase from human polymorphonuclear leukocytes; not inhibitory at the limit of solubility
[4] = target: T2, Cathepsin G (Homo sapiens) (UniProt P08311); assay: Compound was tested for inhibitory activity against human Cathepsin G; conditions: concentration not given here
T2 sequence (whole entry): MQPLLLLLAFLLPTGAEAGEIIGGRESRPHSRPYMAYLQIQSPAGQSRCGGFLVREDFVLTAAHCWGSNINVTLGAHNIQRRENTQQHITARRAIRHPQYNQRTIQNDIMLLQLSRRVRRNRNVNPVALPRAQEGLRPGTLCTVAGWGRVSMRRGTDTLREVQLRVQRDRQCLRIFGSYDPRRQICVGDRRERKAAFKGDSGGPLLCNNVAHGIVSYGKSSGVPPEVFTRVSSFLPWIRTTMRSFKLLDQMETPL

[5] = target: Chymotrypsinogen A (Bos taurus) (UniProt P00766); assay: Compound was tested for inhibitory activity against […] alpha-chymotrypsin; conditions: concentration not given here
[6] = target: T1, Neutrophil elastase; assay: Compound was tested for inhibition of human leukocyte Elastase at 13 uM concentration from human polymorphonuclear leukocytes
[7] = target: T1, Neutrophil elastase; assay: Compound was tested for inhibition of human leukocyte Elastase at 64 uM concentration from human polymorphonuclear leukocytes
[8] = target: T1, Neutrophil elastase; assay: Compound was tested for inhibition of human leukocyte Elastase at 32 uM concentration from human polymorphonuclear leukocytes
[9] = target: T1, Neutrophil elastase; assay: Compound was tested for inhibition of human leukocyte Elastase at 15 uM concentration from human polymorphonuclear leukocytes
[10] = target: T1, Neutrophil elastase; assay: Compound was tested for inhibition of human leukocyte Elastase at 23 uM concentration from human polymorphonuclear leukocytes

In the case of `Oc1sc(Nc2cccc(F)c2)nc2c3ccccc3nc1-2`, the Ki [1] is reported as ≥ 72 µM.

For `Oc1sc(Nc2ccc(F)cc2)nc2c3ccccc3nc1-2`, the Ki [2] was ≥ 104 µM.

With `Cc1ccc(Nc2nc3c4ccccc4nc-3c(O)s2)cc1` the Ki [1] was ≥ 78 µM.

With `CNc1nc2c3ccccc3nc-2c(O)s1` the Ki [3] was “No inhibition”.

`Oc1sc(Nc2cccc(C(F)(F)F)c2)nc2c3ccccc3nc1-2` was tested, and the inhibition [4] was 5.3%, the inhibition [5] was 34.2% and the Ki [6] was ≥ 30 µM.

`Oc1sc(Nc2ccccc2)nc2c3ccccc3nc1-2` showed an inhibition [4] of 11.1%, an inhibition [5] of 13.3% and a Ki [7] of 43 µM.

In the case of `Oc1sc(Nc2ccc(Br)cc2)nc2c3ccccc3nc1-2`, the Ki [6] is reported as ≥ 30 µM.

`Oc1sc(Nc2ccccc2F)nc2c3ccccc3nc1-2` was tested, and the Ki [8] was ≥ 88 µM.

For `CCNc1nc2c3ccccc3nc-2c(O)s1`, the Ki [3] was “No inhibition”.

`O=[N+]([O-])c1ccc(Nc2nc3c4ccccc4nc-3c(O)s2)cc1` was tested, and the Ki [9] was ≥ 45 µM.

`Oc1sc(Nc2ccc(Cl)cc2)nc2c3ccccc3nc1-2` gave a Ki [10] of 29 µM.

For `CCCNc1nc2c3ccccc3nc-2c(O)s1`, the Ki [3] was “No inhibition”.

Source: ChEMBL document CHEMBL1127997, “Synthesis of new thiazinoindole derivatives and their evaluation as inhibitors of human leukocyte elastase and other related serine proteases” (Bioorg Med Chem Lett, 1994)
